Values joined by “and” are separate entries in the source; they are usually repeats but may differ in a detail not shown here. Equal entries are not always repeated.

Assay [1] concerns ovalbumin (OVA)-induced asthma. Briefly: Ovalbumin (OVA)-induced asthma in mice, mast cell-independent model. The assay is classed as in vivo. The procedure:
Mice were sensitized by i.p. injection of OVA emulsified in adjuvant (Day 1 and 14). Groups of mice were each challenged by intranasal injection of OVA (Day 25, 26, 27). Compound 17 was administered by i.p. injection (10 and 30 mg/kg) before each intranasal challenge (Day 25, 26, 27).

Assay [2] deals with Ovalbumin-induced Allergic Rhinitis. Briefly: Ovalbumin-induced allergic rhinitis in mice, prophylactic effect. The assay is classed as in vivo, BALB/c mice. The procedure: BALB/c mice were sensitized by i.p. injection of OVA emulsified in alum (Day 0, 5, 14, 21). Groups of mice were each challenged by intranasal injection of OVA (Day 22-35, 38). Control group mice received an equal volume of vehicle by intranasal injection. Nasal symptoms (number of sneezes and episodes of nose rubbing by the front paws) were counted during the 5 min period following the last intranasal injection (Day 38). […] The histamine receptor antagonist […]® was used as a positive control.

Assay [3] has as its system ovalbumin (OVA)-induced asthma. Briefly: Ovalbumin (OVA)-induced asthma in mice, mast cell-dependent model. The assay is classed as in vivo. As to conditions: 30 mg/kg i.p., Day 42-46. On the procedure: Mice were sensitized by i.p. injection with OVA in saline (10 μg) on alternate days (Day 0, 2, 4, 6, 8, 10, 12). Groups of mice were each challenged by intranasal injection of OVA (Day 40, 43, 46). Compound 17 was administered by i.p. injection (30 mg/kg) on consecutive days (Day 42, 43, 44, 45, 46). Compared to vehicle, leukocyte influx was inhibited by 95% and 55% (in two separate assays), LTC4 influx was inhibited by 90% and IL-4 influx was inhibited by 85%.

For assay [4], the system named is Ovalbumin-induced Allergic Rhinitis. Briefly: Ovalbumin-induced allergic rhinitis in mice, therapeutic effect. Format: in vivo, BALB/c mice. On the procedure:
BALB/c mice were sensitized by i.p. injection of OVA emulsified in alum (Day 0, 5, 14, 21). Groups of mice were each challenged by intranasal injection of OVA (Day 22-35, 38).
Control group mice received an equal volume of vehicle by intranasal injection. Nasal symptoms (number of sneezes and episodes of nose rubbing by the front paws) were counted during the 5 min period following the last intranasal injection (Day 38).
The anti-histamine Pyralimine and the mast cell-stabilizing agent Ketotifen were used as positive controls.

Where [5] appears, read: intranasal 10 μg/nostril four times per day, Days 29-38.
Setting [6] is: positive controls, dose not given.

As for `C[N+](C)(Cc1ccc(NC(=O)c2ccc(Cl)c(Cl)c2)cc1)C1CCOCC1.[Cl-]` [Cpd 17, [4-(3,4-dichloro-benzoylamino)-benzyl]-dimethyl-(tetrahydro-pyran-4-yl)-ammonium chloride], the “inhibition of leukocyte influx compared to vehicle” value was 40% in assay [1] (10 mg/kg i.p. before each intranasal challenge); 70% in assay [1] (30 mg/kg i.p. before each intranasal challenge); 95% and 55% in assay [3] (two separate assays). The “inhibition of nasal symptoms (rubbing)” value worked out at 57% in assay [2] (intranasal 10 μg/nostril), 71% in assay [2] (intranasal 30 μg/nostril) and 42% in assay [4] (setting [5]). For the same compound, the “inhibition of nasal symptoms (sneezing)” value in assay [2] (intranasal 10 μg/nostril) came out at 64%; in assay [2] (intranasal 30 μg/nostril), 82%; in assay [4] (setting [5]), 0%. Moreover, the “inhibition of IL-4 influx compared to vehicle” value in assay [3] is given as 85%. Moreover, in assay [3], the “inhibition of LTC4 influx compared to vehicle” value was determined as 90%.
As for `COc1ccc(CN(CCN(C)C)c2ccccn2)cc1` [Pyralimine], in assay [4] (setting [6]), the “inhibition of nasal symptoms (rubbing)” value is given as 85% and the “inhibition of nasal symptoms (sneezing)” value turned out to be 60%.

(Values after patent US7799824B2, “Quaternary salt CCR2 antagonists” (OraPharma, Inc., priority 2004, dated 2010).)
